Earlier results as cited in patent US20080075658A1, “Method of Radiolabeling Formulations for Gamma Scintigraphy Assessment” (priority 2006, published 2008).

Details: radioactive decay of the radionuclide

| SMILES | half life | half-life [h] |
| --- | --- | --- |
| [Tc] [Example 99mTc, technetium] | 6.01 h | – |
| [Cl-].[Cl-].[Cl-].[In+3] [InCl2, indium chloride] | InCl2 half life is 67.2 hrs | 67.2 |
| [O-2].[O-2].[O-2].[Sm+3].[Sm+3] [Sm2O3, samarium oxide] | 46.27 h | – |
